Laboratory results published in patent US8859529B2, “Compounds for the treatment of inflammatory disorders” (Merck Sharp & Dohme Corp., priority 2008, dated 2014).

Columns and labels:
[1] = system: TNF-α production from human whole blood; assay: Inhibition of TNF-α production from human whole blood (hWBA); assay type: cell-based; settings: human whole blood diluted 1:1, 1 h pre-incubation, LPS, 3.5 h, TNF-α by ELISA; N/A = Not Active
Description: The compounds' ability to inhibit TACE activity can also be determined in human whole blood using the assay conditions described n Example 15 below.
Human whole blood was diluted 1:1 with serum free medium (RPMI, L-glutamine, Pen-Strep, HEPES) and incubated with a test compound in a final volume of 360 μl for 1 h at 37° C. Forty microliters of LPS (10 μg/mL) was then added. Supernatant was collected after 3.5 h incubation and the concentration of TNF-α was determined by ELISA (R&D Systems). The concentration of the test compound which inhibits 50% of the amount of TNF-α from the untreated control was determined.

[2] = Area under the curve determinations of plasma levels in rats (rrAUC); assay type: in vivo; settings: rapid rat AUC of the drug (parent) in plasma; oral 10 mg/kg, fasted rats, blood 0.5-6 h post-dosing
Description: To gain insight into the pharmacokinetic properties of the compounds of formula (I), plasma levels of the compounds in rats were determined according to the protocol described in Korfmacher, W. A,; Cox, K. A.; Ng, K. J.; Veals, J.; Hsieh, Y.; Wainhaus, S.; Broske, L; Prelusky, D.; Nomeir, A.; White, R. E. Rapid Commun. Mass Spectrorn, 2001, 15, 335. Briefly, rats, after an overnight fast, were dosed orally with the test compound at a dose of 10 mg/kg in a 5 mL/kg dose volume. Blood was collected at 0.5, 1, 2, 3, 4, and 6 h post-dosing. Mass spectrometry using high performance liquid chromatography was used to identify and measure the concentrations of the test compounds in the plasma at the various time points. The parent ion of each test compound was used to identify and quantitate the compounds in plasma.

Compound	IC50 [1] [nM]	PK (rrAUC) parent [2]
COc1ccc2c(c1F)C(=O)N(C[C@@]1(c3cc4nc(N5C(=O)CCC5C)ccc4o3)NC(=O)N(COC(=O)C(C)(C)C)C1=O)C2 (stereo partly shown) [Compound 9]	192	4557 nM·h
COc1ccc2c(c1)C(=O)N(C[C@@]1(c3cc4nc(N5C(=O)CCC5C)ccc4o3)NC(=O)N(COC(=O)C(C)(C)C)C1=O)C2 (stereo partly shown) [Compound 10]	266	1202 nM·h
COc1ccc2c(c1F)C(=O)N(C[C@@]1(c3cc4c(C)nccc4o3)NC(=O)N(COC(=O)C(C)(C)C)C1=O)C2 [Compound 11]	235	1827 nM·h
COc1ccc2c(c1F)C(=O)N(C[C@@]1(c3cc4cnc(C)cc4o3)NC(=O)N(COC(=O)C(C)(C)C)C1=O)C2 [Compound 12]	187	45,213 nM · h
COc1ccc2c(c1)C(=O)N(C[C@@]1(C#Cc3ccc4c(=O)[nH][nH]c4c3)NC(=O)N(COC(=O)C(C)(C)C)C1=O)C2 [Compound 13]	213	0 nM·h
COc1ccc2c(c1F)C(=O)N(C[C@@]1(C#Cc3ccc4c(=O)[nH][nH]c4c3)NC(=O)N(COC(=O)C(C)(C)C)C1=O)C2 [Compound 14]	275	0 nM·h
COc1ccc2c(c1)C(=O)N(C[C@@]1(C#Cc3ccc(C(N)=O)cc3)NC(=O)N(COC(=O)C(C)(C)C)C1=O)C2 [Compound 15]	188	0 nM·h
COc1ccc2c(c1F)C(=O)N(C[C@@]1(c3cc4nc(-c5cn[nH]c5)ccc4o3)NC(=O)N(COC(=O)C(C)(C)C)C1=O)C2 [Compound 16]	141	249 nM·h
COc1ccc2c(c1)C(=O)N(C[C@@]1(c3cc4nc(-c5c(C)nn(C)c5C)ccc4o3)NC(=O)N(COC(=O)C(C)(C)C)C1=O)C2 [Compound 17]	626	2005 nM·h
COc1ccc2c(c1F)C(=O)N(C[C@@]1(c3cc4nc(N)ccc4o3)NC(=O)N(COC(=O)C(C)(C)C)C1=O)C2 [Compound 18]	178	351 nM·h
COc1ccc2c(c1F)C(=O)N(C[C@@]1(c3cc4ncc(C(N)=O)cc4o3)NC(=O)N(COC(=O)C(C)(C)C)C1=O)C2 [Compound 19]	101	94 nM·h
COc1ccc2c(c1)C(=O)N(C[C@@]1(c3cc4nc(N5CCCNC5=O)ccc4o3)NC(=O)N(COC(=O)C(C)(C)C)C1=O)C2 [Compound 20]	282	148 nM·h
COc1ccc2c(c1)C(=O)N(C[C@@]1(c3cc4nc(N5CC[C@@H](O)C5)ccc4o3)NC(=O)N(COC(=O)C(C)(C)C)C1=O)C2 [Compound 21]	339	2684 nM·h
COc1ccc2c(c1F)C(=O)N(C[C@@]1(c3cc4c(OC(C)=O)nccc4o3)NC(=O)N(COC(=O)C(C)(C)C)C1=O)C2 [Compound 22]	2820	823 nM·h
CCN1CCN(c2ccc3oc([C@]4(CN5Cc6ccc(OC)cc6C5=O)NC(=O)N(COC(=O)C(C)(C)C)C4=O)cc3n2)CC1 [Compound 24]	176	655 nM·h
COc1ccc2c(c1)C(=O)N(C[C@@]1(C#Cc3ccc(N4CCNCC4)cc3)NC(=O)N(COC(=O)C(C)(C)C)C1=O)C2 [Compound 25]	212	0 nM·h
COc1ccc2c(c1)C(=O)N(C[C@@]1(c3cc4nc(NS(C)(=O)=O)ccc4o3)NC(=O)N(COC(=O)C(C)(C)C)C1=O)C2 [Compound 26]	645	0 nM·h
COc1ccc2c(c1)C(=O)N(C[C@@]1(c3cc4cc(-c5cc(=O)[nH]c(N)n5)ccc4o3)NC(=O)N(COC(=O)C(C)(C)C)C1=O)C2 [Compound 27]	940	0 nM·h

Compound	IC50 [1] [nM]	PK (rrAUC) parent [2]
COc1ccc2c(c1)C(=O)N(C[C@@]1(c3cc4nc(N5CCNCC5)ccc4o3)NC(=O)N(COC(=O)C(C)(C)C)C1=O)C2 [Compound 28]	156	0 nM·h
COc1ccc2c(c1F)C(=O)N(C[C@@]1(c3cc4cc(-c5cc(=O)[nH]c(N)n5)ccc4o3)NC(=O)N(COC(=O)C(C)(C)C)C1=O)C2 [Compound 29]	199	0 nM·h
COc1ccc2c(c1)C(=O)N(C[C@@]1(c3cc4nc(N5C[C@H](O)CC5=O)ccc4o3)NC(=O)N(COC(=O)C(C)(C)C)C1=O)C2 [Compound 31]	224	334 nM·h
COc1ccc2c(c1)C(=O)N(C[C@@]1(c3cc4cc(-c5cc(=O)[nH]c(N)n5)cnc4o3)NC(=O)N(COC(=O)C(C)(C)C)C1=O)C2 [Compound 33]	375	0 nM·h
COc1ccc2c(c1)C(=O)N(C[C@@]1(c3cc4nc(Nc5cccnc5)ccc4o3)NC(=O)N(COC(=O)C(C)(C)C)C1=O)C2 [Compound 34]	1330	94 nM·h
COc1ccc2c(c1)C(=O)N(C[C@@]1(c3cc4cnccc4o3)NC(=O)N(COC(=O)[C@H](N)C(C)C)C1=O)C2 [Compound 35.3]	244	4316 nM·h
COc1ccc2c(c1F)C(=O)N(C[C@@]1(C#Cc3cncc(NC(=O)C4CCN(C)CC4)c3)NC(=O)N(COC(=O)C(C)(C)C)C1=O)C2 [Compound 36]	171	0 nM·h
COc1ccc2c(c1F)C(=O)N(C[C@@]1(c3cc4nc(N5C[C@H](O)CC5=O)ccc4o3)NC(=O)N(COC(=O)C(C)(C)C)C1=O)C2 [Compound 37]	148	0 nM·h
COc1ccc2c(c1F)C(=O)N(C[C@@]1(c3cc4nc(N5C[C@@H](O)CC5=O)ccc4o3)NC(=O)N(COC(=O)C(C)(C)C)C1=O)C2 [Compound 38]	94	1736 nM·h
CCOc1ccc2c(c1F)C(=O)N(C[C@@]1(c3cc4nc(N5CCN(CC)CC5)ccc4o3)NC(=O)N(COC(=O)C(C)(C)C)C1=O)C2 [Compound 39]	241	927 nM·h
COc1ccc2c(c1)C(=O)N(C[C@@]1(C#Cc3ccc(-c4nc(-c5cnn(C)c5)ccc4OC(=O)C(C)(C)C)cc3)NC(=O)N(COC(=O)C(C)(C)C)C1=O)C2 [Compound 43]	336	0 nM·h
COc1ccc2c(c1F)C(=O)N(C[C@@]1(C#Cc3ccc(-c4nc(-c5cnn(C)c5)ccc4OC(=O)C(C)(C)C)c(F)c3)NC(=O)N(COC(=O)C(C)(C)C)C1=O)C2 [Compound 44]	281	0 nM·h
COc1ccc2c(c1)C(=O)N(C[C@@]1(c3cc4ncccc4o3)NC(=O)N(C(C)C)C1=O)C2 [Compound 51]	7150	370 nM·h
COc1ccc2c(c1)C(=O)N(C[C@@]1(c3cc4cnccc4o3)NC(=O)N(COC(=O)OC3CCOCC3)C1=O)C2 [Compound 59]	184	13539 nM·h
COc1ccc2c(c1)C(=O)N(C[C@@]1(c3cc4cnccc4o3)NC(=O)N(C(C)OC(=O)OC3CCOCC3)C1=O)C2 (stereo partly shown) [Compound 61]	685	0 nM·h
COc1ccc2c(c1)C(=O)N(C[C@@]1(c3cc4cnccc4o3)NC(=O)N(COC(=O)OC(C)C)C1=O)C2 [Compound 62]	250	0 nM·h
COc1ccc2c(c1)C(=O)N(C[C@@]1(c3cc4cnccc4o3)NC(=O)N(COC(=O)OCC3COCO3)C1=O)C2 (stereo partly shown) [Compound 63.1]	449	0 nM·h
